Values after ≈ are worked out from the molar mass of the structure shown. Like-named read-outs stand apart in the source and are kept apart here.
What was measured:
physchem = format: physicochemical
Excerpt: (§1) In some embodiments, the one or more organic compounds includes cyclodextrin or a cyclodextrin derivative. In some embodiments, the one or more organic compounds includes hydroxypropyl-beta-cyclodextrin (HPBCD). In some embodiments, HPBCD is provided in a concentration ranging from about 0.49 to about 0.55 wt. %, including, for example, 0.50%, 0.51%, 0.52%, 0.53%, and 0.54%. […] The low solubility of melatonin can lead to limited absorption and bioavailability. With the addition of HPBCD, the solubility of melatonin is improved to about 10 mg/mL. In an aqueous solution in which HPBCD is present at a concentration ranging from about 0.49 to about 0.55 wt. %, HPBCD monomers have a hydrodynamic size of 10 nm and aggregates of HPBCD form up to 100 nm in diameter (measured via dynamic light scattering).

log P of melatonin = format: physicochemical
Excerpt: as §1

In the case of COc1ccc2[nH]cc(CCNC(C)=O)c2c1 [melatonin], the solubility (physchem) is reported as about 100 µg/mL (≈ 0.431 mM), the solubility (physchem; aqueous with cosolvent or surfactant or cyclodextrin) is reported as about 10000 µg/mL (≈ 43.1 mM) and the logP (log P of melatonin) is reported as 1.6.

— patent US20230364175A1 (priority 2022, published 2023)
